Reference: patent publication US5587479A, “Basic derivatives of glutamic acid and aspartic acid as gastrin or cholecystokinin antagonists” (priority 1992, dated 1996)
In brackets after ≈: the same amount, converted by molar mass. Read-outs that look alike come from different tables or passages of the source.

Legend:
CCK-B receptors = conditions: guinea-pig; cited from earlier work
[1] = test system: acid secretion induced by pentagastrin; test: Activity against gastric secretion stimulated with pentagastrin in the anaesthetized rat; assay type: in vivo
Experimental: The investigation of the activity against gastric secretion performed by the compounds of the invention by means of an antigastrin mechanism was carried out in vivo in anaesthetized rats with the use of male animals weighing about 200 g. Gastric secretion was stimulated with pentagastrin and the method of K. S. Lai [Gut 5, (1964), 327-341] was used, slightly modified.
After tracheotomy, the oesophagus and duodenum were cannulated. Perfusion was carried out with a tepid solution (37° C.) of 0.25 mM NaOH which was passed through the stomach by means of a peristaltic pump at a constant flow rate of 1 ml/minute. After stabilization for 20 minutes, the stimulant, dissolved in a physiological solution, was perfused for 120 minutes at a dose of 30 mcg/kg/h in a volume of 0.95 ml/hour. After perfusion for 60 minutes (the basal simulation), the product under test was administered intravenously (I.V.) as a bolus and the perfusion of the stimulant was continued for a further 60 minutes. The acid secretion was recorded continuously as a function of time.
The activity of the product was evaluated as the percentage reduction in the secreted acidity after the administration of the product compared with the basal acidity measured during the first 60 minutes of collection in the presence of pentagastrin alone.

mouse = test: Anxiolytic activity in the mouse, Black and White Box test; assay type: in vivo; conditions: for TOTAL MOV.: five minutes
Experimental: In order to confirm the hypothesis that the potent activity of some of the compounds of the invention against central CCK-B may be correlated with a possible anxiolytic activity, this potential activity was evaluated in the mouse with the use of the "Black and White Box test". This experimental model, which was carried out according to Costall et al. [Pharm. Biochem. Behav. 32 (1989), 777-785] used a box with dimensions of 45×21×21 (h) cm. divided into two compartments which communicated with each other by means of a 13×5 cm hole. The smaller compartment (1/3 of the total area) had black walls, whereas the larger had transparent walls and was illuminated by a lamp which was placed 20 cm above the box and supplied light at 20 W. Under the floor was an activity meter which registered the movements performed by the animal in the individual compartments. The experiment was started by placing the animal in the centre of the illuminated box; as well at its movements, the time which the animal spent in the dark and in the light and the number of times it moved between the 2 compartments were recorded for five minutes. In general, a control animal tended preferably to stay in the dark compartment where it felt better protected from an unusual enviromental situation which put it in a state of anxiety. In this experimental model ( see the reference cited above), a compound having anxiolytic activity decreased the % of movements into the dark in comparison with the total movements, increased the movements between the two light-dark compartments, and increased the % of the total time time spent in the light. The results obtained are given in Table 5 below in which the activities obtained with the compound 1 (the rectus series ) and its enantiomer 2 (sinister) tested in comparison with diazepam and the CCK-B antagonist L365-260.

[2] = molecular target: T1, cholecystokinin receptors of the pancreatic cells of the rat (CCK-A) (Rattus norvegicus, UniProt P30551); test: Inhibition of the binding of [125-I]-[Bolton-Hunter]-CCK-8 to rat pancreatic cells (anti-CCK-A); conditions: rat pancreatic cells
T1 construct: The pancreatic cells of the rat were prepared as described by Makovec et al; from tissue; host or cells: rat pancreatic cells
T1 sequence (P30551 1-444): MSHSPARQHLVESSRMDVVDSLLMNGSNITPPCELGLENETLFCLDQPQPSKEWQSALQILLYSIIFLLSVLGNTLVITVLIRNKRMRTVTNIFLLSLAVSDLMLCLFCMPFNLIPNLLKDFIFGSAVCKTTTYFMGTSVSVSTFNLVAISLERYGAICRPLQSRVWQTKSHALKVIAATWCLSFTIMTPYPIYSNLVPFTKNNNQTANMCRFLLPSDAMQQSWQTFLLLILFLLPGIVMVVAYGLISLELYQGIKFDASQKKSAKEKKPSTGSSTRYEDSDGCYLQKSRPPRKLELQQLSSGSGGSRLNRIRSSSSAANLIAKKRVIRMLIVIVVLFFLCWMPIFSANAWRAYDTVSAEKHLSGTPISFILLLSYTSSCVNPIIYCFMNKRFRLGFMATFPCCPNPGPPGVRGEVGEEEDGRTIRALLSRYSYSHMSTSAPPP
Experimental: The pancreatic cells of the rat were prepared as described by Makovec et al. (reference cited) so as to produce about 5×10^6 cells/mi. The cells were then incubated together with the radioactive tracer and the compounds under test for 30 minutes at 37° C.
After the supernatant liquid had been discarded, the radioactivity associated with the pellet was determined with a gamma counter (80% efficiency).

guinea-pig ureters = test: Antispastic activity in vitro: spontaneous motility of guinea-pig ureters; conditions: Cavia porcellus, five minutes contact, 37° C.
Description: The isotonic contractions were detected by means of a force transducer and recorded. […] A given concentration of the product under test was then introduced into the bath and left in contact with the prepared specimen for five minutes, after which the ureter was washed until its own spontaneous activity was re-established.

[3] = molecular target: T2, central CCK-B receptors (guinea pig cortical membrane) (Cavia porcellus, UniProt H0VZC5); test: Inhibition of binding of (3-H)[N-methyl-N-leucine]CCK-8 to guinea pig cortical membranes (anti-CCK-B)
T2 construct: Cerebral cortices of white male guinea pigs were therefore used; from tissue; host or cells: guinea pig cerebral cortex membranes
T2 sequence (H0VZC5 1-426): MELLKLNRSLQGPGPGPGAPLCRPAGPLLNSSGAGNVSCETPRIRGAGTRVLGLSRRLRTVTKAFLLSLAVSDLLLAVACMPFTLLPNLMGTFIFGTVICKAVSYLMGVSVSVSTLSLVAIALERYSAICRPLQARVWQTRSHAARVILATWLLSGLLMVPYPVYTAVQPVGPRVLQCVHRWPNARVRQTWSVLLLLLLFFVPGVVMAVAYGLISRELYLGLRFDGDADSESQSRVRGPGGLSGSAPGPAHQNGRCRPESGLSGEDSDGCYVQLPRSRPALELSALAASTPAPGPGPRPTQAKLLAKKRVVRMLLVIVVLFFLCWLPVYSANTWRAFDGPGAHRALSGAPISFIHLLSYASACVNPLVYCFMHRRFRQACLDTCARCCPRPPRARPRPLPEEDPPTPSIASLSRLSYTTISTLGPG
Experimental: Cerebral cortices of white male guinea pigs were therefore used, according to the method mentioned above, so as to obtain a membrane content/ml corresponding to about 300 mcg of proteins/mi. The membranes were incubated together with the radioactive tracer and the compounds under test for 150 minutes at 25° C. After the supernatant liquid had been discarded, the radioactivity associated with the pellet was determined with a liquid scintillator.

## non-sulphated [3-H][N-methyl-N-leucine]CCK-8
CCK-B receptors
  affinity for the receptors of the cortex (CCK-B), times greater than for those of the pancreas (CCK-A): about 4000 times

## CN1CCN(C(=O)CC[C@@H](NC(=O)c2cc(Cl)cc(Cl)c2)C(=O)N2CCC3(CCCC3)CC2)CC1 [Compound 1]
[1]; iv, anaesthetized rat, pentagastrin 30 mcg/kg/h, I.V. bolus, read-out: Antagonistic activity (ID50) towards acid secretion induced by pentagastrin
  ED50: 9 mg/kg
[1]; rat, pentagastrin-induced acid secretion
  activity times higher than that of its S enantiomer, compound 2: about three
[1]; rat, pentagastrin-induced acid secretion, molar basis
  times more active than CR 2194, calculated on a molar basis: about 1.5 times
[1]; rat, pentagastrin-induced acid secretion, weight basis
  times more active than CR 2194: about 1.2 times
mouse; 0.01 mg/kg IP
  LIGHT TIME (%) TOTAL TIME: 32.3%
  LIGHT TIME (%) TOTAL TIME: % EFF.VS CONTROL: 17%
  LIGHT-DARK MOVEMENTS: 13.2
  LIGHT-DARK MOVEMENTS: % EFF. VS CONTROL: 3%
  MOV. DARK (%) TOTAL MOV.: 50%
  MOV. DARK (%) TOTAL MOV.: % EFF. VS CONTROL: 0%
  TOTAL MOV.: 478
mouse; 0.1 mg/kg IP
  LIGHT TIME (%) TOTAL TIME: 35.4%
  LIGHT TIME (%) TOTAL TIME: % EFF.VS CONTROL: 28%
  LIGHT-DARK MOVEMENTS: 15.0
  LIGHT-DARK MOVEMENTS: % EFF. VS CONTROL: 17%
  MOV. DARK (%) TOTAL MOV.: 47%
  MOV. DARK (%) TOTAL MOV.: % EFF. VS CONTROL: -5%
  TOTAL MOV.: 461
mouse; 1 mg/kg IP
  LIGHT TIME (%) TOTAL TIME: 30.5%
  LIGHT TIME (%) TOTAL TIME: % EFF.VS CONTROL: 10%
  LIGHT-DARK MOVEMENTS: 12.9
  LIGHT-DARK MOVEMENTS: % EFF. VS CONTROL: 0%
  MOV. DARK (%) TOTAL MOV.: 45%
  MOV. DARK (%) TOTAL MOV.: % EFF. VS CONTROL: -9%
  TOTAL MOV.: 471
mouse; IP
  anxiolytic activity in the Black and White Box test (in words): active for all the parameters tested
mouse; bell-shaped curve
  dose at which the compound is most active: 0.1 mg/kg (I.P.)
[2]
  activity relative to its acidic parent compound CR 2194 (CCK-A binding): about twice
guinea-pig ureters; force of the contractions, read-out: IC50 (force), inhibition of the spontaneous motility of guinea-pig ureters in vitro
  IC50: 23 µg/mL (≈ 43.9 µM)
guinea-pig ureters; frequency of the contractions, read-out: IC50 (frequency), inhibition of the spontaneous motility of guinea-pig ureters in vitro
  IC50: 29 µg/mL (≈ 55.4 µM)
[3]; IC50, inhibition of binding of (3-H)[N-methyl-N-leucine]CCK-8 to the guinea pig cortical membrane, 150 minutes at 25° C.
  IC50: 700 nM
[3]; guinea-pig cortical membranes
  times less active than pentagastrin (CCK-B binding): about 200 times
  times more potent than the CCK-A antagonist R-lorglumide (CCK-B binding): about 10 times
  times more potent than the gastrin antagonist CR 2194 (CCK-B binding): about 3 times
